Assay results reported in ChEMBL document CHEMBL1127398, “(-)-11-Hydroxy-7'-isothiocyanato-1',1'-dimethylheptyl-delta 8-THC: a novel, high-affinity irreversible probe for the cannabinoid receptor in the brain” (J Med Chem, 1994).

Target: Cannabinoid receptor (Rattus norvegicus, UniProt Q9QZN9+P20272)
Assay: Tested for affinity of compound against cannabinoid receptor in rat forebrain membranes
Assay type: cell membranes, Membrane

Row | SMILES | IC50
1 | CCc1cc(C(C)(C)CCCCCCN=C=S)cc2c1[C@@H]1CC(CO)=CC[C@H]1C(C)(C)O2 | 1.6 nM
2 | CC1=CC2c3c(O)cc(CCCCN=[N+]=[N-])cc3OC(C)(C)[C@H]2CC1 (some centres not stated) | 31 nM
